*1 amine or outer side, *2 acyl side, *3 side chain or, on linkers, in order; H or OH if unused. Where a SMILES comes first, the peptide text is derived from it. Bridges are numbered along the chain shown (N, C = ends). [ ]: non-standard residue; d: D form. The star is where a group is joined. N(4-F-Bzl)Gly = O=C(O)CNCc1ccc(F)cc1; αMeY = C[C@](N)(Cc1ccc(O)cc1)C(=O)O; Gly(cPent) = N[C@H](C(=O)O)C1CCCC1; αMeL = CC(C)C[C@](C)(N)C(=O)O; αMeV = CC(C)[C@](C)(N)C(=O)O; Thz = O=C(O)[C@@H]1CSCN1; X1 = O=C(CCC[*:2])[*:1]; Dap = NC[C@H](N)C(=O)O; Piv = CC(C)(C)C(=O)*
Target: T1, Human OTR (Homo sapiens, UniProt P30559)
T1 construct: expressed in transfected cells; host or cells: HEK293 (stably transfected, G418 selection)
T1 sequence (P30559 1-389): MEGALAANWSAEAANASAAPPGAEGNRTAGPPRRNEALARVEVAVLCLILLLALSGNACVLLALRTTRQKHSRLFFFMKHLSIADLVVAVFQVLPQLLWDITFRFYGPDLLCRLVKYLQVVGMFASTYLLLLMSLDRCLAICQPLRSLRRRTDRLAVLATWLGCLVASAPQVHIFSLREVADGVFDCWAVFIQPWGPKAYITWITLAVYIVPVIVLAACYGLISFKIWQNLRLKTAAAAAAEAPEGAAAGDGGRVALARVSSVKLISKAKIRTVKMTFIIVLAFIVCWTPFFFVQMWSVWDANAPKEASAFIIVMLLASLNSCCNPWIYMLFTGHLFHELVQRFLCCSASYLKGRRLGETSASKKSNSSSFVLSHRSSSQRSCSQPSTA
Assay: IP-1 accumulation in HEK293 cells stably expressing hOTR-GFP
Type: cell-based
Conditions: 1 h stimulation at 37° C., normalized to maximum OT response
Protocol: Cell culture for functional assays.
Measurement of inositol phosphate one (IP-1) accumulation. HEK293 cells were cultured in DMEM supplemented with 10% FBS and penicillin/streptomycin (100 U mL^−1) at 37° C. and 5% CO2. Cells were transferred into white opaque 384-well plates (CellStar®, Greiner, Austria) at ˜10,000 cells per well 48 h prior to measurement. Quantitative measurements of receptor-mediated IP-1 were performed by competitive immunoassay utilizing the IP-One assay kit [9]. HEK293 cells were assayed as per the manufacturer's protocol. Briefly, at the time of analysis, the culture media was removed and replaced with IP-1 stimulation buffer. Cells were allowed to equilibrate in the stimulation buffer at 37° C. for 15 min, followed by addition of peptide ligands (to final concentrations of 1 μM-10 μM) and subsequent stimulation for 1 h at 37° C. The stimulation was terminated by lysis and the simultaneous addition of homogenous time-resolved fluorescence resonance energy transfer reagents. The lysates were incubated for 1 h at 25° C. Fluorescence emission measurements at 620 nm and 665 nm were performed using a Spark Multimode plate reader (Tecan, Switzerland) at an excitation wavelength of 340 nm. Results were analyzed as a ratio of fluorescence intensities of 665 nm to 620 nm. […]

Row | EC50 [nM] | SMILES
1 | > 500 | CC[C@H](C)[C@@H]1NC(=O)[C@H](Cc2ccc(OC)cc2)NC(=O)CCCSC[C@@H](C(=O)N(CC(=O)N[C@@H](CNC(C)=O)C(=O)NCC(N)=O)Cc2ccc(F)cc2)NC(=O)[C@H](CC(N)=O)NC(=O)[C@H](CCC(N)=O)NC1=O [Compound 8] (Y(Me)IQNC[N(4-F-Bzl)Gly][Dap](Ac)G-NH2; linker N-5 via X1)

Test system: not listed separately
Assay: in vitro
Conditions: simulated gi fluid, pH 6.8
Protocol: (§1) Simulated intestinal fluid (SIF). […] The solution was centrifuged, and syringe filtered before use.
(§2) Stability assay procedure. Stock solutions (1 mM) of test peptides were prepared in ddH2O. […] The peptide stock solution (30 μL) was added to the fluid, the mixture was vortexed and incubated at 37° C. […] All samples were centrifuged (5 min, 16,000×g) and stored at 4° C. before analysis.
(§3) RP-HPLC-UV(-MS) analysis of stability samples. […] 30 μL sample were injected on a Kromasil Classic C1S HPLC column (2.1×150 mm, 100 Å, 5 μm) equipped with a guard column (C18, 100 Å, 5 μm, 2.1 mm). […] Solvent A: 0.1% TFA in ddH2O. Solvent B: 0.08% TFA in ACN.
(§4) Data analysis. […] Peak areas (mAU×min) at individual time points were normalized to the mean value of time point zero (y(t0)=100%). To calculate compound half-lives (t1/2), a one-phase exponential decay function was fitted to normalized data points via a nonlinear regression in GraphPad Prism (Version 9) (GraphPad Software Inc., La Jolla, California, USA). The following constraints were applied: (i) y(t0) constant equal to 100, (ii) plateau constant equal to 0.

Row | half-life at 50 µM [min] | SMILES
2 | 8 ± 1 | CC[C@H](C)[C@@H]1NC(=O)[C@H](Cc2ccc(O)cc2)NC(=O)[C@@H](N)CSSC[C@@H](C(=O)N2CCC[C@H]2C(=O)N[C@@H](CC(C)C)C(=O)NCC(N)=O)NC(=O)[C@H](CC(N)=O)NC(=O)[C@H](CCC(N)=O)NC1=O [OT, oxytocin]

Test system: not listed separately
Assay: in vitro
Conditions: simulated gi fluid

Row | half-life [min] | SMILES
3 | > 1440 | CC[C@H](C)[C@@H]1NC(=O)[C@H](Cc2ccc(O)cc2)NC(=O)[C@@H](N)CSSC[C@@H](C(=O)N2CCC[C@H]2C(=O)N[C@@H](CC(C)C)C(=O)NCC(N)=O)NC(=O)[C@H](CC(N)=O)NC(=O)[C@H](CCC(N)=O)NC1=O [OT, oxytocin]

Test system: not listed separately
Assay: Stability in simulated intestinal fluid (SIF)
Conditions: relative stability compared with SIF stability of oxytocin (8±1 min); SIF pH 6.8, pancreatin, 37° C.
Protocol: as §1, §2, §3, §4

Row | SIF stability [fold OT] | SMILES
4 | >100 fold OT | CC(=O)NC[C@H](NC(=O)[C@@H]1CCCN1C(=O)[C@@H]1CSCCCC(=O)N[C@@H](Cc2ccc(O)cc2)C(=O)N[C@@](C)(C(C)C)C(=O)N[C@@H](CCC(N)=O)C(=O)N[C@@H](CC(N)=O)C(=O)N1)C(=O)NCC(N)=O [Compound 15] (Y[αMeV]QNCP[Dap](Ac)G-NH2; linker N-5 via X1)
5 | >100 fold OT | CC(=O)NCCCC[C@H](NC(=O)[C@@H]1CCCN1C(=O)[C@@H]1CSCCCC(=O)N[C@@H](Cc2ccc(O)cc2)C(=O)N[C@@](C)(C(C)C)C(=O)N[C@@H](CCC(N)=O)C(=O)N[C@@H](CC(N)=O)C(=O)N1)C(=O)NCC(N)=O [Compound 19] (Y[αMeV]QNCPK(Ac)G-NH2; linker N-5 via X1)
6 | > 100 fold OT | CC(=O)NCCCC[C@H](NC(=O)[C@@H]1CSCN1C(=O)[C@@H]1CSCCCC(=O)N[C@@H](Cc2ccc(O)cc2)C(=O)N[C@@](C)(C(C)C)C(=O)N[C@@H](CCC(N)=O)C(=O)N[C@@H](CC(N)=O)C(=O)N1)C(=O)NCC(N)=O [Compound 20] (Y[αMeV]QNC[Thz]K(Ac)G-NH2; linker N-5 via X1)
7 | >100 fold OT | CC[C@H](C)[C@@H]1NC(=O)[C@](C)(Cc2ccc(O)cc2)NC(=O)CCCSC[C@@H](C(=O)N2CCC[C@H]2C(=O)N[C@@H](CCCCNC(C)=O)C(=O)NCC(N)=O)NC(=O)[C@H](CC(N)=O)NC(=O)[C@H](CCC(N)=O)NC1=O [Compound 16] ([αMeY]IQNCPK(Ac)G-NH2; linker N-5 via X1)
8 | >100 fold OT | CC[C@H](C)[C@@H]1NC(=O)[C@H](Cc2ccc(OC)cc2)NC(=O)CCCSC[C@@H](C(=O)N2CSC[C@H]2C(=O)N[C@@H](CCCCNC(C)=O)C(=O)NCC(N)=O)NC(=O)[C@H](CC(N)=O)NC(=O)[C@H](CCC(N)=O)NC1=O [Compound 22] (Y(Me)IQNC[Thz]K(Ac)G-NH2; linker N-5 via X1)
9 | >100 fold OT | COc1ccc(C[C@@H]2NC(=O)CCCSC[C@@H](C(=O)N3CSC[C@H]3C(=O)N[C@@H](CCCCNC(C)=O)C(=O)NCC(N)=O)NC(=O)[C@H](CC(N)=O)NC(=O)[C@H](CCC(N)=O)NC(=O)[C@H](C3CCCC3)NC2=O)cc1 [Compound 23] (Y(Me)[Gly(cPent)]QNC[Thz]K(Ac)G-NH2; linker N-5 via X1)
10 | >100 fold OT | COc1ccc(C[C@@H]2NC(=O)CCCSC[C@@H](C(=O)N3CCC[C@H]3C(=O)N[C@@H](CCCCNC(C)=O)C(=O)NCC(N)=O)NC(=O)[C@H](CC(N)=O)NC(=O)[C@H](CCC(N)=O)NC(=O)[C@H](C3CCCC3)NC2=O)cc1 [Compound 21] (Y(Me)[Gly(cPent)]QNCPK(Ac)G-NH2; linker N-5 via X1)
11 | >100 fold OT | CC(=O)NCCCC[C@H](NC(=O)[C@@H]1CSCN1C(=O)[C@@H]1CSCCCC(=O)N[C@@](C)(Cc2ccc(O)cc2)C(=O)N[C@@H](C2CCCC2)C(=O)N[C@@H](CCC(N)=O)C(=O)N[C@@H](CC(N)=O)C(=O)N1)C(=O)NCC(N)=O [Compound 18] ([αMeY][Gly(cPent)]QNC[Thz]K(Ac)G-NH2; linker N-5 via X1)
12 | >100 fold OT | CC[C@H](C)[C@@H]1NC(=O)[C@](C)(Cc2ccc(O)cc2)NC(=O)CCCSC[C@@H](C(=O)N2CSC[C@H]2C(=O)N[C@@H](CCCCNC(C)=O)C(=O)NCC(N)=O)NC(=O)[C@H](CC(N)=O)NC(=O)[C@H](CCC(N)=O)NC1=O [Compound 17] ([αMeY]IQNC[Thz]K(Ac)G-NH2; linker N-5 via X1)

The remaining lines, values behind:

Row | SMILES | SIF stability [fold OT]
13 | CC[C@H](C)[C@@H]1NC(=O)[C@H](Cc2ccc(O)cc2)NC(=O)[C@@H](N)CSSC[C@@H](C(=O)N2CCC[C@H]2C(=O)N[C@@](C)(CC(C)C)C(=O)NCC(N)=O)NC(=O)[C@H](CC(N)=O)NC(=O)[C@H](CCC(N)=O)NC1=O [Compound 3] | 10-100 fold OT
14 | CC[C@H](C)[C@@H]1NC(=O)[C@H](Cc2ccc(OC)cc2)NC(=O)CCCSC[C@@H](C(=O)N2CCC[C@H]2C(=O)N[C@@H](CNC(=O)C(C)(C)C)C(=O)NCC(N)=O)NC(=O)[C@H](CC(N)=O)NC(=O)[C@H](CCC(N)=O)NC1=O [Compound 13] (Y(Me)IQNCP[Dap](Piv)G-NH2; linker N-5 via X1) | > 100 fold OT
15 | CC[C@H](C)[C@@H]1NC(=O)[C@H](Cc2ccc(OC)cc2)NC(=O)CCCSC[C@@H](C(=O)N(CC(=O)N[C@@H](CNC(C)=O)C(=O)NCC(N)=O)Cc2ccc(F)cc2)NC(=O)[C@H](CC(N)=O)NC(=O)[C@H](CCC(N)=O)NC1=O [Compound 8] (Y(Me)IQNC[N(4-F-Bzl)Gly][Dap](Ac)G-NH2; linker N-5 via X1) | 10-100 fold OT
16 | CC[C@H](C)[C@@H]1NC(=O)[C@H](Cc2ccc(C)cc2)NC(=O)CCCSC[C@@H](C(=O)N2CCC[C@H]2C(=O)N[C@@H](CNC(C)=O)C(=O)NCC(N)=O)NC(=O)[C@H](CC(N)=O)NC(=O)[C@H](CCC(N)=O)NC1=O [Compound 11] | 10-100 fold OT
17 | CC[C@H](C)[C@@H]1NC(=O)[C@](C)(Cc2ccc(O)cc2)NC(=O)CCCSC[C@@H](C(=O)N2CCC[C@H]2C(=O)N[C@@H](CNC(C)=O)C(=O)NCC(N)=O)NC(=O)[C@H](CC(N)=O)NC(=O)[C@H](CCC(N)=O)NC1=O [Compound 9] ([αMeY]IQNCP[Dap](Ac)G-NH2; linker N-5 via X1) | >100 fold OT
18 | COc1ccc(C[C@@H]2NC(=O)CCCSC[C@@H](C(=O)N3CCC[C@H]3C(=O)N[C@@H](CNC(C)=O)C(=O)NCC(N)=O)NC(=O)[C@H](CC(N)=O)NC(=O)[C@H](CCC(N)=O)NC(=O)[C@H](C3CCCC3)NC2=O)cc1 [Compound 14] (Y(Me)[Gly(cPent)]QNCP[Dap](Ac)G-NH2; linker N-5 via X1) | >100 fold OT
19 | CC[C@H](C)[C@@H]1NC(=O)[C@H](Cc2ccc(OC)cc2)NC(=O)CCCSC[C@@H](C(=O)N2CCC[C@H]2C(=O)N[C@@H](CNC(C)=O)C(=O)NCC(N)=O)NC(=O)[C@H](CC(N)=O)NC(=O)[C@H](CCC(N)=O)NC1=O [Compound 6] (Y(Me)IQNCP[Dap](Ac)G-NH2; linker N-5 via X1) | >100 fold OT
20 | CC[C@H](C)[C@@H]1NC(=O)[C@H](Cc2ccc(O)cc2)NC(=O)[C@@H](N)CSSC[C@@H](C(=O)N2CCC[C@H]2C(=O)N[C@@H](CCCCNC(C)=O)C(=O)NCC(N)=O)NC(=O)[C@H](CC(N)=O)NC(=O)[C@H](CCC(N)=O)NC1=O [Compound 1] | 10-100 fold OT
21 | CC[C@H](C)[C@@H]1NC(=O)[C@H](Cc2ccc(C(F)(F)F)cc2)NC(=O)CCCSC[C@@H](C(=O)N2CCC[C@H]2C(=O)N[C@@H](CNC(C)=O)C(=O)NCC(N)=O)NC(=O)[C@H](CC(N)=O)NC(=O)[C@H](CCC(N)=O)NC1=O [Compound 12] | >100 fold OT
22 | CC[C@H](C)[C@@H]1NC(=O)[C@](C)(Cc2ccccc2)NC(=O)CCCSC[C@@H](C(=O)N2CCC[C@H]2C(=O)N[C@@H](CNC(C)=O)C(=O)NCC(N)=O)NC(=O)[C@H](CC(N)=O)NC(=O)[C@H](CCC(N)=O)NC1=O [Compound 10] | >100 fold OT
23 | CC[C@H](C)[C@@H]1NC(=O)[C@H](Cc2ccc(O)cc2)NC(=O)[C@@H](N)CSSC[C@@H](C(=O)N2CCC[C@H]2C(=O)N[C@H](CC(=O)NCC(N)=O)CC(C)C)NC(=O)[C@H](CC(N)=O)NC(=O)[C@H](CCC(N)=O)NC1=O [Compound 4] | 10-100 fold OT
24 | CC[C@H](C)[C@@H]1NC(=O)[C@H](Cc2ccc(OC)cc2)NC(=O)CCCSC[C@@H](C(=O)N2CCC[C@H]2C(=O)N[C@@](C)(CC(C)C)C(=O)NCC(N)=O)NC(=O)[C@H](CC(N)=O)NC(=O)[C@H](CCC(N)=O)NC1=O [Compound 7] (Y(Me)IQNCP[αMeL]G-NH2; linker N-5 via X1) | >100 fold OT
25 | CC[C@H](C)[C@@H]1NC(=O)[C@H](Cc2ccc(O)cc2)NC(=O)[C@@H](N)CSSC[C@@H](C(=O)N2CCC[C@H]2C(=O)N[C@@H](CNC(C)=O)C(=O)NCC(N)=O)NC(=O)[C@H](CC(N)=O)NC(=O)[C@H](CCC(N)=O)NC1=O [Compound 2] | 10-100 fold OT
26 | CC[C@H](C)[C@@H]1NC(=O)[C@H](Cc2ccc(OC)cc2)NC(=O)CCCSC[C@@H](C(=O)N2CCC[C@H]2C(=O)N[C@@H](CCCCNC(C)=O)C(=O)NCC(N)=O)NC(=O)[C@H](CC(N)=O)NC(=O)[C@H](CCC(N)=O)NC1=O [Compound 5] (Y(Me)IQNCPK(Ac)G-NH2; linker N-5 via X1) | >100 fold OT

Source: US20260116922A1 (UNIVERSITAET WIEN, priority 2021, published 2026)
